# Assay results: PubChem BioAssay (NCI)
#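 Growth conditions: 96-well plates. Treatment: test compound, 48 hours, 5 concentrations. Analysis: linear interpolation between bracketing concentrations; unreached endpoints set to highest concentration. GI50 is the concentration that inhibits growth by half. TGI is the concentration that stops growth completely.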
# Columns and labels:
# Assay in all cases: NCI tumour cell line growth inhibition, 48 h
# SNB-75 CNS = test system: SNB-75 CNS
# COLO 205 colon = test system: COLO 205 colon
# SF-268 CNS = test system: SF-268 CNS
# SNB-19 CNS = test system: SNB-19 CNS
# SR leukemia = test system: SR leukemia
# A549 NSCLC = test system: A549 NSCLC
# HT29 colon = test system: HT29 colon
# EKVX NSCLC = test system: EKVX NSCLC
# T-47D breast = test system: T-47D breast
# SF-539 CNS = test system: SF-539 CNS
# CAKI-1 renal = test system: CAKI-1 renal
# SK-MEL-5 melanoma = test system: SK-MEL-5 melanoma
# OVCAR-4 ovarian = test system: OVCAR-4 ovarian
# BT-549 breast = test system: BT-549 breast
# UO-31 renal = test system: UO-31 renal
# MDA-MB-435 = test system: MDA-MB-435
# CCRF-CEM leukemia = test system: CCRF-CEM leukemia
# NCI-H460 lung = test system: NCI-H460 lung
# SK-OV-3 ovarian = test system: SK-OV-3 ovarian
# NCI-H23 lung = test system: NCI-H23 lung
# LOX IMVI melanoma = test system: LOX IMVI melanoma
# HCC-2998 colon = test system: HCC-2998 colon
# M14 melanoma = test system: M14 melanoma
# U251 CNS = test system: U251 CNS
# RPMI-8226 leukemia = test system: RPMI-8226 leukemia
# OVCAR-8 ovarian = test system: OVCAR-8 ovarian
# A498 renal = test system: A498 renal
# MDA-MB-231 breast = test system: MDA-MB-231 breast
# NCI/ADR-RES ovarian = test system: NCI/ADR-RES ovarian
# ACHN renal = test system: ACHN renal
# SK-MEL-2 melanoma = test system: SK-MEL-2 melanoma
# MOLT-4 leukemia = test system: MOLT-4 leukemia
# HCT-15 colon = test system: HCT-15 colon
# DU-145 prostate = test system: DU-145 prostate
# SK-MEL-28 melanoma = test system: SK-MEL-28 melanoma
# TK-10 renal = test system: TK-10 renal
# SW-620 colon = test system: SW-620 colon
# RXF 393 renal = test system: RXF 393 renal
# MCF7 breast = test system: MCF7 breast
# K-562 leukemia = test system: K-562 leukemia
# IGROV1 ovarian = test system: IGROV1 ovarian
# SF-295 CNS = test system: SF-295 CNS
# HOP-92 NSCLC = test system: HOP-92 NSCLC
# NCI-H522 lung = test system: NCI-H522 lung
# KM12 colon = test system: KM12 colon
# HL-60(TB) leukemia = test system: HL-60(TB) leukemia
# OVCAR-3 ovarian = test system: OVCAR-3 ovarian
# PC-3 prostate = test system: PC-3 prostate
# HCT-116 colon = test system: HCT-116 colon
# 786-0 renal = test system: 786-0 renal
# SN12C renal = test system: SN12C renal
# HOP-62 NSCLC = test system: HOP-62 NSCLC
# OVCAR-5 ovarian = test system: OVCAR-5 ovarian
# HS 578T breast = test system: HS 578T breast
# UACC-62 melanoma = test system: UACC-62 melanoma
# NCI-H226 lung = test system: NCI-H226 lung
compound,measurement,setting,value
CCC1C[N+]2=C(c3cc(OC)c(OC)cc3CC2)c2c1cc1n2CCc2cc(OC)c(OC)cc2-1 (configuration not stated),GI50,SNB-75 CNS,1.77 µM
same,TGI,SNB-75 CNS,7.48 µM
same,GI50,COLO 205 colon,1.23 µM
same,TGI,COLO 205 colon,3.71 µM
same,GI50,SF-268 CNS,3.49 µM
same,TGI,SF-268 CNS,31.8 µM
same,GI50,SNB-19 CNS,2.75 µM
same,TGI,SNB-19 CNS,15.7 µM
same,GI50,SR leukemia,3.1 µM
same,TGI,SR leukemia,> 100 µM
same,GI50,A549 NSCLC,11.8 µM
same,TGI,A549 NSCLC,> 100 µM
same,GI50,HT29 colon,3.23 µM
same,TGI,HT29 colon,20.3 µM
same,GI50,EKVX NSCLC,6.62 µM
same,TGI,EKVX NSCLC,> 100 µM
same,GI50,T-47D breast,0.746 µM
same,TGI,T-47D breast,5.51 µM
same,GI50,SF-539 CNS,3.34 µM
same,TGI,SF-539 CNS,14.9 µM
same,GI50,CAKI-1 renal,20.6 µM
same,TGI,CAKI-1 renal,65.7 µM
same,GI50,SK-MEL-5 melanoma,1.26 µM
same,TGI,SK-MEL-5 melanoma,2.61 µM
same,GI50,OVCAR-4 ovarian,1.14 µM
same,TGI,OVCAR-4 ovarian,8.87 µM
same,GI50,BT-549 breast,2.69 µM
same,TGI,BT-549 breast,13.5 µM
same,GI50,UO-31 renal,18.4 µM
same,TGI,UO-31 renal,46.8 µM
same,GI50,MDA-MB-435,1.62 µM
same,TGI,MDA-MB-435,6.09 µM
same,GI50,CCRF-CEM leukemia,3.68 µM
same,TGI,CCRF-CEM leukemia,42.4 µM
same,GI50,NCI-H460 lung,2.82 µM
same,TGI,NCI-H460 lung,12.1 µM
same,GI50,SK-OV-3 ovarian,5.01 µM
same,TGI,SK-OV-3 ovarian,37.5 µM
same,GI50,NCI-H23 lung,2.77 µM
same,TGI,NCI-H23 lung,18.7 µM
same,GI50,LOX IMVI melanoma,3.72 µM
same,TGI,LOX IMVI melanoma,23.2 µM
same,GI50,HCC-2998 colon,2.55 µM
same,TGI,HCC-2998 colon,12.9 µM
same,GI50,M14 melanoma,3.66 µM
same,TGI,M14 melanoma,14.6 µM
same,GI50,U251 CNS,2.25 µM
same,TGI,U251 CNS,14.5 µM
same,GI50,RPMI-8226 leukemia,0.576 µM
same,TGI,RPMI-8226 leukemia,15 µM
same,GI50,OVCAR-8 ovarian,2.58 µM
same,TGI,OVCAR-8 ovarian,82.1 µM
same,GI50,A498 renal,7.36 µM
same,TGI,A498 renal,33 µM
same,GI50,MDA-MB-231 breast,2.27 µM
same,TGI,MDA-MB-231 breast,8.44 µM
same,GI50,NCI/ADR-RES ovarian,64.3 µM
same,TGI,NCI/ADR-RES ovarian,> 100 µM
same,GI50,ACHN renal,14.7 µM
same,TGI,ACHN renal,30.1 µM
same,GI50,SK-MEL-2 melanoma,2.67 µM
same,TGI,SK-MEL-2 melanoma,7.31 µM
same,GI50,MOLT-4 leukemia,3.97 µM
same,TGI,MOLT-4 leukemia,23.6 µM
same,GI50,HCT-15 colon,14 µM
same,TGI,HCT-15 colon,34.7 µM
same,GI50,DU-145 prostate,5.37 µM
same,TGI,DU-145 prostate,36.8 µM
same,GI50,SK-MEL-28 melanoma,1.93 µM
same,TGI,SK-MEL-28 melanoma,10.1 µM
same,GI50,TK-10 renal,6.84 µM
same,TGI,TK-10 renal,21.1 µM
same,GI50,SW-620 colon,4.25 µM
same,TGI,SW-620 colon,16.8 µM
same,GI50,RXF 393 renal,3.46 µM
same,TGI,RXF 393 renal,15.5 µM
same,GI50,MCF7 breast,1.25 µM
same,TGI,MCF7 breast,13.3 µM
same,GI50,K-562 leukemia,1.95 µM
same,TGI,K-562 leukemia,20.8 µM
same,GI50,IGROV1 ovarian,5.62 µM
same,TGI,IGROV1 ovarian,53.6 µM
same,GI50,SF-295 CNS,6.37 µM
same,TGI,SF-295 CNS,27.7 µM
same,GI50,HOP-92 NSCLC,1.78 µM
same,TGI,HOP-92 NSCLC,6.08 µM
same,GI50,NCI-H522 lung,1.81 µM
same,TGI,NCI-H522 lung,13.9 µM
same,GI50,KM12 colon,1.5 µM
same,TGI,KM12 colon,10.9 µM
same,GI50,HL-60(TB) leukemia,2.47 µM
same,TGI,HL-60(TB) leukemia,10.1 µM
same,GI50,OVCAR-3 ovarian,1 µM
same,TGI,OVCAR-3 ovarian,10.8 µM
same,GI50,PC-3 prostate,2.5 µM
same,TGI,PC-3 prostate,33.1 µM
same,GI50,HCT-116 colon,2.89 µM
same,TGI,HCT-116 colon,13.1 µM
same,GI50,786-0 renal,11 µM
same,TGI,786-0 renal,30.1 µM
same,GI50,SN12C renal,1.93 µM
same,TGI,SN12C renal,11.8 µM
same,GI50,HOP-62 NSCLC,3.51 µM
same,TGI,HOP-62 NSCLC,26.5 µM
same,GI50,OVCAR-5 ovarian,12.1 µM
same,TGI,OVCAR-5 ovarian,> 100 µM
same,GI50,HS 578T breast,4.1 µM
same,TGI,HS 578T breast,> 100 µM
same,GI50,UACC-62 melanoma,1.93 µM
same,TGI,UACC-62 melanoma,6.03 µM
same,GI50,NCI-H226 lung,7.49 µM
same,TGI,NCI-H226 lung,21.2 µM
